# From PMC5538713, “RORγt and RORα signature genes in human Th17 cells” (PLoS ONE, 2017)
# What was measured:
# human RORγt LBD = molecular target: T1, human RORγt LBD (Homo sapiens, UniProt P51449); assay: RORγt cellular reporter assay (GAL4-RORγt LBD luciferase, HEK293T); assay type: cell-based; settings: 24 hours, read-out: RORγ/γt Cellular Reporter Assay (IC50)
# T1 construct: expressed in transfected cells; host or cells: HEK293T
# Protocol: Media was removed and cells were lysed with 50 μL 1x Glo Lysis Buffer (Promega). […] To calculate the effect of compounds on RORγt activity, the ratio of firefly to renilla luciferase was determined and plotted against compound concentration. Agonist compounds increase RORγt-driven luciferase expression, and antagonist or inverse agonist compounds decrease luciferase expression. IC50 values were determined using Graphpad Prism.
# Aa1 = assay: Cerep selectivity panel; assay type: binding
# Aa2 = assay: Cerep selectivity panel; assay type: binding
# RORγt transcripts = assay: RT-PCR of RORγt transcripts in human CD4 T cells during Th17 differentiation; assay type: cell-based; settings: 0.1 and 0.5 μM, throughout the time course (2 hours to 6 days)
# Protocol: Human CD4 T cells from 2 healthy donors were used in studies. 5.0 × 10^6 human CD4 T cells were used per sample and cell samples were collected at 0, 24 and 48 hours of Th17 differentiation for gene expression studies with RNA-Seq and RT-PCR.
# Expression of RORα, RORγt and IL-17A genes in siRNA or compound treated human Th17 cells was measured by quantitative RT-PCR using the TaqMan RNA-to-Ct 1 step kit (Applied Biosystems) following the manufacturer’s instructions. […] Real time PCR was performed using 600ng total RNA as template in the ABI PRISM 7500 Sequence Detection System (Applied Biosystems), with reaction starting at 48°C for 15 minutes, then 10 minutes at 95°C, followed by 40 cycles of 15 seconds at 95°C and 1 minute at 60°C.
# PCR results were analyzed with the ddCT algorithm [34] to generate data on relative quantitation and changes in gene expression.
# IL-17A transcripts = assay: RT-PCR of IL-17A transcripts in human CD4 T cells during Th17 differentiation; assay type: cell-based; settings: 0.5 μM compound
# Protocol: Human CD4 T cells from 2 healthy donors were used in studies. […]
# For compound treatment, CD4 T cells were pre-treated with compounds or DMSO vehicle control at 37°C for 1 hour before T cell activation.
# For siRNA treatment, three RORγt siRNAs, two RORα siRNAs, two control siRNAs were tested at 1 μM, and mock transfected samples were included as controls (S1 Table). siRNA treatment was performed by Amaxa electroporation of human CD4 T cells with siRNAs. Human CD4 T cells were taken up in 100 μL Nucleofector solution (P3 primary cell 4D Nucleofector Kit, reference V4XP-3024, Amaxa Biosciences) at 5.0 × 10^6 cells/100 μL. Cell suspensions were transfected with siRNA by electroporation using the FI-115 program in the Amaxa 4D-Nucleofector. T cells after electroporation were rinsed with 500 μL culture medium, transferred to 24-well culture plates and kept at 37°C cell incubator before use in T cell assays. It was noticed that Amaxa electroporation caused an increased expression of some genes in human T cells and this elevated gene expression lasted up to 8 hours after electroporation. To avoid gene expression study interfered by electroporation, human CD4 T cells were rested in culture medium at 37°C for 8 hours after siRNA electroporation before the use of these cells to initiate Th17 differentiation for transcriptome profile.
# T cells after compound or siRNA treatments were stimulated with anti-CD3/anti-CD28 coated beads (Miltenyi Biotech) at 2:1 bead to cell ratio in culture medium containing 10 ng/ml IL1β (R&D), 10 ng/ml IL23 (R&D), 30 ng/ml TGFβ1 (R&D), 10 μg/ml of anti-IL4 and anti-IFNγ (eBioscience). T cell cultures were collected at different time points for RNA extraction and gene expression studies.
# Expression of RORα, RORγt and IL-17A genes in siRNA or compound treated human Th17 cells was measured by quantitative RT-PCR using the TaqMan RNA-to-Ct 1 step kit (Applied Biosystems) following the manufacturer’s instructions. […]
# PCR results were analyzed with the ddCT algorithm to generate data on relative quantitation and changes in gene expression.
# T1 sequence (P51449 269-508 limits assumed): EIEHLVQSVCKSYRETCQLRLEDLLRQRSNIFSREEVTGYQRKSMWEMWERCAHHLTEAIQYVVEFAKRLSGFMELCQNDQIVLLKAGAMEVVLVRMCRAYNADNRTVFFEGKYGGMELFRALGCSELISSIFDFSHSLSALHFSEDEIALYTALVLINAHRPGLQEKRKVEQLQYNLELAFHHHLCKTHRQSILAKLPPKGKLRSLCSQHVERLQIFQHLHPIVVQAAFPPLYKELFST
smiles,measurement,setting,value
COc1nc2ccc([C@@](O)(c3ccccc3)C3CCN(C(C)=O)CC3)cc2c(Cl)c1Cc1ccc(-n2cccn2)cc1 [C],IC50,human RORγt LBD,28.9 nM
COc1nc2ccc([C@@](O)(c3ccc(C)nc3C)c3cnnn3C)cc2c(Cl)c1Cc1ccc(C(F)(F)F)cc1 [compound A],% Inhibition at 1µM,Aa1; 1 µM,8%
same,% Inhibition at 10µM,Aa1; 10 µM,5%
same,% Inhibition at 10µM,Aa2,7%
CN(C)c1nc2ccc(C(O)(c3ccncc3)c3cncn3C)cc2c(Cl)c1-c1ccccc1 (centres unmarked) [compound D],effect on RORγt expression in T cells,RORγt transcripts,did not affect
same,reduction of IL-17A transcripts,IL-17A transcripts; 24 hours,79%
same,reduction of IL-17A transcripts,IL-17A transcripts; 72 hours,73%
same,decrease of IL-17A transcripts,IL-17A transcripts; day 6,67%
